From patent US20210169113A1, “COMPOSITION FOR IMPROVING INTESTINAL FLORA” (Hosoda SHC Co., Ltd., priority 2018, published 2021)
Where two headings read alike, the source gives them in different places.

Experiments:
[1] = mouse, in vivo
Description: (§1) Seven mice were fed ad libitum with the test diet in which 0.5% of gnemonoside A separated and purified in Example 2 was included in the high-fat diet in an amount of 5 g/mouse/day for 14 consecutive weeks, and then 10 mg of their excrement was collected. The excrement thus collected and 10 mg of the excrement collected in Test example 4 were each added with methanol (acetonitrile aqueous solution), suspended by an ultrasonic treatment, and then filtered. The filtrate was washed with hexane and passed through an ODS cartridge, and 20 μL of the elute was applied to an HPLC apparatus.

[2] = HPLC of excrement for gnetin C and glycosides (Test Example 7); settings: 14 weeks
Description: as §1

Oc1ccc(/C=C/c2cc(O)c3c(c2)OC(c2ccc(O)cc2)C3c2cc(O)cc(O)c2)cc1 (stereo not drawn) [gnetin C]
Peaks in HPLC chromatogram of the excrement [1]: peaks of gnetin C and monoglucuronic acid conjugate of gnetin C

gnemonoside A
Fate in the intestinal tract ([2]; 0.5% in high-fat diet): hydrolyzed and changed to gnetin C in the intestinal tract | Peaks in HPLC chromatogram of the excrement ([2]; 0.5% of substance in high-fat diet, mice excrement): peaks of gnetin C and the monoglucuronide, but not a peak of gnemonoside A, C, or D
